Results from paper PMC6397271 (Scientific Reports, 2019).
Where two headings read alike, the source gives them in different places.

Assays:
Experiment in all cases: microbe, parasite or virus in culture
S. aureus MRSA 12673 = assay type: cell-based, Staphylococcus aureus; conditions: for MIC: raw MIC
Excerpt: (§1) Three bacterial strains of MRSA (N315, 12673, 6347) and two of Enterococcus spp. (E. faecium, E. faecalis) were used. With respect to MRSA, N315 represented a reference Van-susceptible strain (GenBank GCA_00000645.1) isolated from a patient while 12673 (Van-intermediately susceptible) and 6347 (a h-VISA which appears at frequency of <10^−5 to 10^−6 is composed of two subpopulations of bacteria: one susceptible and one intermediately resistant)[38] were clinical strains obtained from patients of The Clinical University Centre of Gdańsk (UCK). […] The clinical strain isolates originated from the collection of the Department of Pharmaceutical Technology and Biochemistry, Faculty of Chemistry, Gdańsk University of Technology.
(§2) The strains were grown in Mueller-Hinton broth (MH cation-adjusted, Becton Dickinson) or Brain Heart Infusion broth (BHI, Becton Dickinson), respectively. The cultivation was carried out in an aerobic atmosphere at 37 °C for 24 hours and, afterwards, the bacterial cultures were diluted in geometric progression with a proper broth. Next, 100 µl of each dilution was inoculated in an agar plate and incubated at 37 °C for 24 h. The next procedures included determination of Colony Forming Units (CFU)/ml and minimal inhibitory concentration (MIC) of the compounds in question. The latter procedure was carried out according to the microbroth dilution technique using 96-well plates. The MICs were evaluated by using the metabolic assay based on the resazurin dye. The assay was performed in triplicates.

S. aureus MRSA N315 = assay type: cell-based, Staphylococcus aureus; conditions: for MIC: raw MIC
Excerpt: as §1, §2

[1] = system: S. aureus MRSA hetero-VISA 6347; assay type: cell-based, Staphylococcus aureus; conditions: for MIC: raw MIC
Excerpt: as §1, §2

[2] = system: Enterococcus faecalis 3937158; assay type: cell-based
Excerpt: as §1, §2

[3] = system: Enterococcus faecium 3934825; assay type: cell-based; conditions: for MIC: raw MIC
Excerpt: as §1, §2

[4] = first block, test a, repetition 1, read-out: MIC1a
[5] = first block, test a, repetition 2, read-out: MIC2a
[6] = first block, test a, repetition 3, read-out: MIC3a
[7] = first block, test b, repetition 1, read-out: MIC1b
[8] = first block, test b, repetition 2, read-out: MIC2b
[9] = first block, test b, repetition 3, read-out: MIC3b
[10] = test a, repetition 1, read-out: MIC1a
[11] = test a, repetition 2, read-out: MIC2a
[12] = test a, repetition 3, read-out: MIC3a
[13] = test b, repetition 1, read-out: MIC1b
[14] = test b, repetition 2, read-out: MIC2b
[15] = test b, repetition 3, read-out: MIC3b
[16] = same test as μM value, mean ± SD

CC[C@H](C)[C@H](NC(=O)[C@H](CCCCN)NC(=O)[C@H](CCCCN)NC(=O)[C@H](C)NC(=O)[C@H](CC(C)C)NC(=O)[C@H](C)NC(=O)[C@H](C)NC(=O)[C@H](CC(C)C)NC(=O)[C@H](C)NC(=O)[C@H](CCCCN)NC(=O)[C@H](CC(C)C)NC(=O)[C@H](CC(N)=O)NC(=O)[C@@H](NC(=O)[C@H](CCCCN)NC(=O)CNC(=O)[C@H](CC(C)C)NC(=O)[C@H](CC(C)C)NC(=O)[C@H](Cc1ccc(O)cc1)NC(=O)CNC(=O)[C@H](C)N)[C@@H](C)CC)C(=O)N[C@@H](CC(C)C)C(=O)N[C@@H](Cc1cn(CCOCCOCCOCCOCCC(=O)N[C@@]2(C)C[C@H](O[C@H]3[C@H](Oc4c5cc6cc4Oc4ccc(cc4Cl)[C@@H](O)[C@@H](NC(=O)[C@@H](CC(C)C)NC)C(=O)N[C@@H](CC(N)=O)C(=O)N[C@H]6C(=O)N[C@H]4C(=O)N[C@H](C(=O)N[C@H](C(=O)O)c6cc(O)cc(O)c6-c6cc4ccc6O)[C@H](O)c4ccc(c(Cl)c4)O5)O[C@H](CO)[C@@H](O)[C@@H]3O)O[C@@H](C)[C@H]2O)nn1)C(N)=O [conjugate III, TP10-Ala(PEG4-Van)]
6.4 ± 1.7 µg/mL: MIC in (μg/ml) [1, 16]
1.56 µM: MIC (S. aureus MRSA 12673; [5]) | MIC (S. aureus MRSA 12673; [8])
6.24 µM: MIC (S. aureus MRSA 12673; [11]) | MIC (S. aureus MRSA 12673; [14])
3.2 µM: MIC [1, 11] | MIC [1, 12]
6.25 µM: MIC (S. aureus MRSA N315; [5]) | MIC (S. aureus MRSA N315; [9]) | MIC [3, 5] | MIC [3, 7]
25.01 µM: MIC (S. aureus MRSA N315; [11]) | MIC (S. aureus MRSA N315; [15]) | MIC [3, 11] | MIC [3, 13]
6.4 µM: MIC [1, 10] | MIC [1, 13] | MIC [1, 14] | MIC [1, 15]
12.5 µM: MIC (S. aureus MRSA N315; [4]) | MIC (S. aureus MRSA N315; [6]) | MIC (S. aureus MRSA N315; [7]) | MIC (S. aureus MRSA N315; [8]) | MIC ([2]; raw MIC, first block, test b, repetition 1, read-out: MIC1b) | MIC [3, 4] | MIC [3, 6] | MIC [3, 8] | MIC [3, 9]
25.0 ± 5.1 µM: MIC ([2]; microbroth dilution, 96-well, resazurin, 37 °C, 24 h, mean ± SD, at least three independent experiments in triplicates)
25 µM: MIC ([2]; raw MIC, first block, test a, repetition 1, read-out: MIC1a) | MIC ([2]; raw MIC, first block, test a, repetition 2, read-out: MIC2a) | MIC ([2]; raw MIC, first block, test a, repetition 3, read-out: MIC3a) | MIC ([2]; raw MIC, first block, test b, repetition 2, read-out: MIC2b) | MIC ([2]; raw MIC, first block, test b, repetition 3, read-out: MIC3b)
100.0 ± 20.4 µg/mL: MIC in (μg/ml) [2, 16]
100.02 µM: MIC ([2]; raw MIC, test a, repetition 1, read-out: MIC1a) | MIC ([2]; raw MIC, test a, repetition 2, read-out: MIC2a) | MIC ([2]; raw MIC, test a, repetition 3, read-out: MIC3a) | MIC ([2]; raw MIC, test b, repetition 2, read-out: MIC2b) | MIC ([2]; raw MIC, test b, repetition 3, read-out: MIC3b)
50.01 µM: MIC (S. aureus MRSA N315; [10]) | MIC (S. aureus MRSA N315; [12]) | MIC (S. aureus MRSA N315; [13]) | MIC (S. aureus MRSA N315; [14]) | MIC ([2]; raw MIC, test b, repetition 1, read-out: MIC1b) | MIC [3, 10] | MIC [3, 12] | MIC [3, 14] | MIC [3, 15]
1.6 µM: MIC [1, 4] | MIC [1, 7] | MIC [1, 8] | MIC [1, 9]
50.0 ± 12.9 µg/mL: MIC in (μg/ml) (S. aureus MRSA N315; [16]) | MIC in (μg/ml) [3, 16]
0.78 µM: MIC (S. aureus MRSA 12673; [4]) | MIC (S. aureus MRSA 12673; [6]) | MIC (S. aureus MRSA 12673; [7]) | MIC (S. aureus MRSA 12673; [9]) | MIC [1, 5] | MIC [1, 6]
3.1 ± 1.6 µg/mL: MIC in (μg/ml) (S. aureus MRSA 12673; [16])
3.12 µM: MIC (S. aureus MRSA 12673; [10]) | MIC (S. aureus MRSA 12673; [12]) | MIC (S. aureus MRSA 12673; [13]) | MIC (S. aureus MRSA 12673; [15])
